Experiments:
[1] = system: hTERT+TK-transduced human corneal stromal cells; assay: Susceptibility to ganciclovir treatment, cell count with trypan-blue staining; format: cell-based; settings: n=3
Protocol: (§1) The susceptibilities of the transduced human corneal stromal cells to ganciclovir treatment were investigated by the following process. The hTERT-transduced human corneal stromal cells of Comparative Example and the hTERT+TK-transduced human corneal stromal cells of Example 1 were separately seeded at 2×10^4 cells/cm^2 in a 24-well plate, and cultured under conditions of 37° C. and 5% CO2 (medium: DMEM, 10% FBS, 100 U/ml penicillin and 100 μg/ml streptomycin). On the 1st day after seeding, ganciclovir treatment was started (treatment concentration: 0, 10^−7, […], […], and 10^−4 M; time course: day 0, 2, 4, 6, 8, 10, and 12). The susceptibility of each type of the transduced human corneal stromal cells to ganciclovir treatment was determined using 3 wells for each concentration at each time point (n=3). At each time point, the number of the cells was counted with trypan-blue staining. For counting with trypan-blue staining, an erythrocytometer (hematometer; product name: Burker-Turk deep 1/10 mm; product number: Tokyo No. 0880 (ERMA, Inc.)) was used. Immediately after staining, each sample was placed in a counting chamber of the erythrocytometer. Immediately after that, the number of the cells was counted. The average number of the cells on the zero-day of ganciclovir treatment at each treatment concentration was used as a baseline (100%) for the results of the cell number at each time point.

[2] = system: hTERT-transduced human corneal stromal cells (not transduced with the HSV-TK gene); assay: as above; format: cell-based; settings: any treatment concentration (up to 10^-4 M), 12th day after ganciclovir treatment, n=3
Protocol: as §1

SMILES: Nc1nc(O)c2ncn(COC(CO)CO)c2n1 [ganciclovir]
- number of the cells after ganciclovir treatment ([1]; 10^-4 M treatment group, 6th day after ganciclovir treatment): all the cells died
- number of the cells after ganciclovir treatment ([1]; 10^-7, 10^-6 and 10^-5 M groups, from the 8th day after ganciclovir treatment): concentration-dependent decrease in the number of the cells
- number of the cells after ganciclovir treatment [2]: did not decrease

From US20120149598A1, “FEEDER CELLS FOR TARGET CELL INDUCTION” (priority 2009, published 2012)
